Results taken from ChEMBL document CHEMBL4507285, “Data for DCP probe MRL-SYKi” (2021).
The source made the active and inactive calls. The calls are words filed in the database; no cut-off is given here.

How the values were obtained:
[1] = test system: Mast cell; experiment: Human Mast Cell degranulation; assay type: cell-based
[2] = molecular target: RAC-beta serine/threonine-protein kinase (Homo sapiens) (UniProt P31751); conditions: Compound concentration 100.0 nM
[3] = molecular target: ALK tyrosine kinase receptor (Homo sapiens) (UniProt Q9UM73); conditions: Compound concentration 100.0 nM
[4] = molecular target: 5'-AMP-activated protein kinase catalytic subunit alpha-1 (Homo sapiens) (UniProt Q13131); conditions: Compound concentration 100.0 nM
[5] = molecular target: Mitogen-activated protein kinase kinase kinase 6 (Homo sapiens) (UniProt O95382); conditions: Compound concentration 100.0 nM
[6] = molecular target: Calcium/calmodulin-dependent protein kinase type 1G (Homo sapiens) (UniProt Q96NX5); conditions: Compound concentration 100.0 nM
[7] = molecular target: Calcium/calmodulin-dependent protein kinase type II subunit delta (Homo sapiens) (UniProt Q13557); conditions: Compound concentration 100.0 nM
[8] = molecular target: Cyclin-dependent kinase 4 (Homo sapiens) (UniProt P11802); conditions: Compound concentration 100.0 nM
[9] = molecular target: Casein kinase I isoform gamma-3 (Homo sapiens) (UniProt Q9Y6M4); conditions: Compound concentration 100.0 nM
[10] = molecular target: Megakaryocyte-associated tyrosine-protein kinase (Homo sapiens) (UniProt P42679); conditions: Compound concentration 100.0 nM
[11] = test system: Epidermal growth factor receptor (Homo sapiens), P00533 [L861Q]; conditions: Compound concentration 100.0 nM
[12] = test system: Epidermal growth factor receptor (Homo sapiens), P00533 [UNDEFINED MUTATION]; conditions: Compound concentration 100.0 nM
[13] = molecular target: Ephrin type-A receptor 2 (Homo sapiens) (UniProt P29317); conditions: Compound concentration 100.0 nM
[14] = molecular target: Receptor tyrosine-protein kinase erbB-3 (Homo sapiens) (UniProt P21860); conditions: Compound concentration 100.0 nM
[15] = molecular target: Tyrosine-protein kinase FRK (Homo sapiens) (UniProt P42685); conditions: Compound concentration 100.0 nM
[16] = molecular target: Rhodopsin kinase GRK7 (Homo sapiens) (UniProt Q8WTQ7); conditions: Compound concentration 100.0 nM
[17] = molecular target: Mitogen-activated protein kinase kinase kinase kinase 1 (Homo sapiens) (UniProt Q92918); conditions: Compound concentration 100.0 nM
[18] = molecular target: Inhibitor of nuclear factor kappa-B kinase subunit beta (Homo sapiens) (UniProt O14920); conditions: Compound concentration 100.0 nM
[19] = molecular target: Interleukin-1 receptor-associated kinase 3 (Homo sapiens) (UniProt Q9Y616); conditions: Compound concentration 100.0 nM
[20] = molecular target: Tyrosine-protein kinase JAK1 (Homo sapiens) (UniProt P23458); conditions: Compound concentration 100.0 nM
[21] = test system: Mast/stem cell growth factor receptor Kit (Homo sapiens), P10721 [L576P]; conditions: Compound concentration 100.0 nM
[22] = molecular target: LIM domain kinase 2 (Homo sapiens) (UniProt P53671); conditions: Compound concentration 100.0 nM
[23] = molecular target: Serine/threonine-protein kinase MAK (Homo sapiens) (UniProt P20794); conditions: Compound concentration 100.0 nM
[24] = molecular target: Dual specificity mitogen-activated protein kinase kinase 3 (Homo sapiens) (UniProt P46734); conditions: Compound concentration 100.0 nM
[25] = molecular target: Macrophage-stimulating protein receptor (Homo sapiens) (UniProt Q04912); conditions: Compound concentration 100.0 nM
[26] = molecular target: Serine/threonine-protein kinase 24 (Homo sapiens) (UniProt Q9Y6E0); conditions: Compound concentration 100.0 nM
[27] = molecular target: Serine/threonine-protein kinase Nek5 (Homo sapiens) (UniProt Q6P3R8); conditions: Compound concentration 100.0 nM
[28] = molecular target: Platelet-derived growth factor receptor beta (Homo sapiens) (UniProt P09619); conditions: Compound concentration 100.0 nM
[29] = molecular target: Calcium-dependent protein kinase 1 (Plasmodium falciparum) (UniProt P62344); conditions: Compound concentration 100.0 nM
[30] = test system: Phosphatidylinositol 4,5-bisphosphate 3-kinase catalytic subunit alpha isoform (Homo sapiens), P42336 [H1047Y]; conditions: Compound concentration 100.0 nM
[31] = molecular target: Phosphatidylinositol 4,5-bisphosphate 3-kinase catalytic subunit gamma isoform (Homo sapiens) (UniProt P48736); conditions: Compound concentration 100.0 nM
[32] = molecular target: Protein-tyrosine kinase 2-beta (Homo sapiens) (UniProt Q14289); conditions: Compound concentration 100.0 nM
[33] = molecular target: Ribosomal protein S6 kinase alpha-5 (Homo sapiens) (UniProt O75582); conditions: Compound concentration 100.0 nM
[34] = molecular target: Ribosomal protein S6 kinase alpha-6 (Homo sapiens) (UniProt Q9UK32); conditions: Compound concentration 100.0 nM
[35] = molecular target: Serine/threonine-protein kinase 33 (Homo sapiens) (UniProt Q9BYT3); conditions: Compound concentration 100.0 nM
[36] = molecular target: Serine/threonine-protein kinase 36 (Homo sapiens) (UniProt Q9NRP7); conditions: Compound concentration 100.0 nM
[37] = molecular target: Serine/threonine-protein kinase TBK1 (Homo sapiens) (UniProt Q9UHD2); conditions: Compound concentration 100.0 nM
[38] = molecular target: Activated CDC42 kinase 1 (Homo sapiens) (UniProt Q07912); conditions: Compound concentration 100.0 nM
[39] = molecular target: Serine/threonine-protein kinase TNNI3K (Homo sapiens) (UniProt Q59H18); conditions: Compound concentration 100.0 nM
[40] = molecular target: Vascular endothelial growth factor receptor 2 (Homo sapiens) (UniProt P35968); conditions: Compound concentration 100.0 nM
[41] = molecular target: Tyrosine-protein kinase ZAP-70 (Homo sapiens) (UniProt P43403); conditions: Compound concentration 100.0 nM
[42] = molecular target: 5-hydroxytryptamine receptor 2A (Homo sapiens) (UniProt P28223); conditions: Compound concentration 10.0 uM
[43] = molecular target: 5-hydroxytryptamine receptor 2B (Homo sapiens, UniProt P41595); conditions: Compound concentration 10.0 uM
[44] = molecular target: Kappa-type opioid receptor (Homo sapiens) (UniProt P41145); conditions: Compound concentration 10.0 uM
[45] = molecular target: Histamine H3 receptor (Homo sapiens) (UniProt Q9Y5N1); conditions: Compound concentration 10.0 uM
[46] = organism: Rattus norvegicus; conditions: Compound concentration 10.0 uM

Phosphatidylinositol 4,5-bisphosphate 3-kinase catalytic subunit gamma isoform (Homo sapiens), sequence (P48736 whole entry, looked up, canonical isoform): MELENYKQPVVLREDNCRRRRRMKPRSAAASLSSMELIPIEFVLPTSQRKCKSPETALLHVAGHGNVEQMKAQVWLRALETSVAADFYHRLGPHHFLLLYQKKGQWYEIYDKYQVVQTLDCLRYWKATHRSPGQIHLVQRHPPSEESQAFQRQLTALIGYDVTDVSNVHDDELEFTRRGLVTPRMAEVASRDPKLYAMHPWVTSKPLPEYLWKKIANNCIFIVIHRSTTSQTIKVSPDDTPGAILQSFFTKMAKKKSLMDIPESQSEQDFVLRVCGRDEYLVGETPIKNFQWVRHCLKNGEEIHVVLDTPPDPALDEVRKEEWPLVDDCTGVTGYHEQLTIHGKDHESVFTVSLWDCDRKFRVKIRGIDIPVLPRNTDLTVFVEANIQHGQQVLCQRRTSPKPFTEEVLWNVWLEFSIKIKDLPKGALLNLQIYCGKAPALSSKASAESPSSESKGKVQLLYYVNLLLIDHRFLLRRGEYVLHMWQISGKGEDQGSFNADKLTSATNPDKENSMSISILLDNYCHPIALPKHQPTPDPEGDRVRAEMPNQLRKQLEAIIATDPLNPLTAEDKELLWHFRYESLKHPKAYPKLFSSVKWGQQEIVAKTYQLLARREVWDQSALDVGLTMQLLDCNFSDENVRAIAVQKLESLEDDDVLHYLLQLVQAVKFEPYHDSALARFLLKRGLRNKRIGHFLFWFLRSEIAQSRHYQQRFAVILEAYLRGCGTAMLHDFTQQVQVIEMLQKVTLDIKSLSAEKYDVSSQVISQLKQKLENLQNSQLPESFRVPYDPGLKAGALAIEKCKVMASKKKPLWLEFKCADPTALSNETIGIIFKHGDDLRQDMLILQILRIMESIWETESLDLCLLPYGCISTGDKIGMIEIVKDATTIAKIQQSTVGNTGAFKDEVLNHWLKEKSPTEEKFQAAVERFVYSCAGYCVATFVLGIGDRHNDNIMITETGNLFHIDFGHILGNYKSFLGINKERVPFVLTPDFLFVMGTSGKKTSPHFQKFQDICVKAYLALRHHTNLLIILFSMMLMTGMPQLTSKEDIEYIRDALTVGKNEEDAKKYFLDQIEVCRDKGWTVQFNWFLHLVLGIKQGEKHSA
Megakaryocyte-associated tyrosine-protein kinase (Homo sapiens), sequence (P42679 whole entry): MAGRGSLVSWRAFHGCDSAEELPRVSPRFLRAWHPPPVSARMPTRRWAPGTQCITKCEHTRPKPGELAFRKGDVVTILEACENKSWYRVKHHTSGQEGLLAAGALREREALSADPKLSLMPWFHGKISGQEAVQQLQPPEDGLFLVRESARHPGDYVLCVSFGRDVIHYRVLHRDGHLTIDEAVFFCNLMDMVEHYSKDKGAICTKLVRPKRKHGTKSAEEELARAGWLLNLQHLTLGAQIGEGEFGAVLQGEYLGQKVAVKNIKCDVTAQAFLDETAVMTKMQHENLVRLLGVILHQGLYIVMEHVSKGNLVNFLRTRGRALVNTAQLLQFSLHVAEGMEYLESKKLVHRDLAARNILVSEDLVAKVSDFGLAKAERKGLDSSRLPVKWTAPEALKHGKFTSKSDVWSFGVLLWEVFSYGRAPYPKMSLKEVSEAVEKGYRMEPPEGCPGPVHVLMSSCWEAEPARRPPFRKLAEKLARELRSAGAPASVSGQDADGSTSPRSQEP
Tyrosine-protein kinase ZAP-70 (Homo sapiens), sequence (P43403 whole entry): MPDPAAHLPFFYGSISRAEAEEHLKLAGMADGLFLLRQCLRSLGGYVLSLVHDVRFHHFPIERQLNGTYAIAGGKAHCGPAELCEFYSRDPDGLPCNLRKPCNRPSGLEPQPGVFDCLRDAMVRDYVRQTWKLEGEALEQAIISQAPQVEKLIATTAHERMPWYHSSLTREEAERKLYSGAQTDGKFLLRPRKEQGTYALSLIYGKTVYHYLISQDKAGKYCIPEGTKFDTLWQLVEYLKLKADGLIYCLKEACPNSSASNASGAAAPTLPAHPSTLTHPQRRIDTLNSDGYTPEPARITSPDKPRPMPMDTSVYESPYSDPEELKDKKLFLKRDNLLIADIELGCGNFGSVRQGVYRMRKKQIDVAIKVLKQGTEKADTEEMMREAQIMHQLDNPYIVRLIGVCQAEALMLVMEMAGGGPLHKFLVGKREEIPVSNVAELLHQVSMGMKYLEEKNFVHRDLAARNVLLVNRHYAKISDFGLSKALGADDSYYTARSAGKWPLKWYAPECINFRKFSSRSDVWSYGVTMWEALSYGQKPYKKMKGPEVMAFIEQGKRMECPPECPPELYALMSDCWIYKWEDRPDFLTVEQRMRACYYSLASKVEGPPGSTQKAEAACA
Inhibitor of nuclear factor kappa-B kinase subunit beta (Homo sapiens), sequence (O14920 whole entry): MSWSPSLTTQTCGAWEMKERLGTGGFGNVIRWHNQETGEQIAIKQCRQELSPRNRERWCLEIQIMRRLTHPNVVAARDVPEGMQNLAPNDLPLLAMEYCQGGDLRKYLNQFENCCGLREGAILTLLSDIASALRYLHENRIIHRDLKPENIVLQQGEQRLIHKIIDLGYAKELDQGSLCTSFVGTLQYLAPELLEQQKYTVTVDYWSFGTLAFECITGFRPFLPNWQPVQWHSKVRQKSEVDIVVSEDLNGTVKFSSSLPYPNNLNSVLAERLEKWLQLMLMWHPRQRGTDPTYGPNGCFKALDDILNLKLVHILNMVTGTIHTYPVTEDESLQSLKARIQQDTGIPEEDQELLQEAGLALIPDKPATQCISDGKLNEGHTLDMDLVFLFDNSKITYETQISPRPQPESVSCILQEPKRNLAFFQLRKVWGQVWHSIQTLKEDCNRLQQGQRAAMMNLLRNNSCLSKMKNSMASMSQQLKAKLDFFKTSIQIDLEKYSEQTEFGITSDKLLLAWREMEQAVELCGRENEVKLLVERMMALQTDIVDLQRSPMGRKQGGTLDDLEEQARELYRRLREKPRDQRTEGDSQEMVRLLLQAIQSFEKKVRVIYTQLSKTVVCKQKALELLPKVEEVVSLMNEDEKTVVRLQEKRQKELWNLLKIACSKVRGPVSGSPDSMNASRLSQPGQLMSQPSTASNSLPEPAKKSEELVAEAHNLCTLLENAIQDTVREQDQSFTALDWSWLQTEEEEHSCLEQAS
Receptor tyrosine-protein kinase erbB-3 (Homo sapiens), sequence (P21860 whole entry): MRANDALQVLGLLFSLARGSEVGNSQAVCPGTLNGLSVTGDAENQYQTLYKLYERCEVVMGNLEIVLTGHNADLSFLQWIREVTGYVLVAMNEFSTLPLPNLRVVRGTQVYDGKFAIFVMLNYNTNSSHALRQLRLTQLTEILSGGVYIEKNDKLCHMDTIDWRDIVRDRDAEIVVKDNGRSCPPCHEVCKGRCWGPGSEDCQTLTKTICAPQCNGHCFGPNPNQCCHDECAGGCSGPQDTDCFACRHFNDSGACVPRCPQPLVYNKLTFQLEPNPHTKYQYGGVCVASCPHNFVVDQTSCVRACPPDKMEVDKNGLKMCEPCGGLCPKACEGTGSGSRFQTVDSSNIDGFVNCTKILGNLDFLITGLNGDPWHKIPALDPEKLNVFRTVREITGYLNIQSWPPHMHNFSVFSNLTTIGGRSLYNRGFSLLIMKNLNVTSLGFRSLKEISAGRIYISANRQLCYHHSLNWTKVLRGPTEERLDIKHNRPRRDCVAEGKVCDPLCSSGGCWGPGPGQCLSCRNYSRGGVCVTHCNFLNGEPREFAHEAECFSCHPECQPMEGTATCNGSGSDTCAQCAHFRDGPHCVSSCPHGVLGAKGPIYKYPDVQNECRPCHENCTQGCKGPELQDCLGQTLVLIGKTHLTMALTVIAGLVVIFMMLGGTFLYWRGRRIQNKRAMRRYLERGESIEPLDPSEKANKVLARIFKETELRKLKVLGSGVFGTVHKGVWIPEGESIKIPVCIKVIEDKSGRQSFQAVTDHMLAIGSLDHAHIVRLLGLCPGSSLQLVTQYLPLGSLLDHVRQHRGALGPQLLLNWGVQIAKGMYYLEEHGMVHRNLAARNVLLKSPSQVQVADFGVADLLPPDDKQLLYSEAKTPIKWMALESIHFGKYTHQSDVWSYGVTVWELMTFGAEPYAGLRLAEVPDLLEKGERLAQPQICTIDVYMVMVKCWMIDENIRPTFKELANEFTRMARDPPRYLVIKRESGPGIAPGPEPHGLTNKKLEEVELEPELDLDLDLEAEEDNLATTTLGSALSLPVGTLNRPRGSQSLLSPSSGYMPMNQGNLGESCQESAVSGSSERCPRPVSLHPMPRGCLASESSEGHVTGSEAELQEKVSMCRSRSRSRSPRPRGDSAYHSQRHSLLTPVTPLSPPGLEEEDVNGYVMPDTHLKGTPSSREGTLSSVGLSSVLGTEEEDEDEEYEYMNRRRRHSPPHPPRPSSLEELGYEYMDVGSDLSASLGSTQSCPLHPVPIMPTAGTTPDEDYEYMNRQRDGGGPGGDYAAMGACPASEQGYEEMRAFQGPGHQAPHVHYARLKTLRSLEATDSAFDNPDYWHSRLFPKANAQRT
Serine/threonine-protein kinase Nek5 (Homo sapiens), sequence (Q6P3R8 whole entry): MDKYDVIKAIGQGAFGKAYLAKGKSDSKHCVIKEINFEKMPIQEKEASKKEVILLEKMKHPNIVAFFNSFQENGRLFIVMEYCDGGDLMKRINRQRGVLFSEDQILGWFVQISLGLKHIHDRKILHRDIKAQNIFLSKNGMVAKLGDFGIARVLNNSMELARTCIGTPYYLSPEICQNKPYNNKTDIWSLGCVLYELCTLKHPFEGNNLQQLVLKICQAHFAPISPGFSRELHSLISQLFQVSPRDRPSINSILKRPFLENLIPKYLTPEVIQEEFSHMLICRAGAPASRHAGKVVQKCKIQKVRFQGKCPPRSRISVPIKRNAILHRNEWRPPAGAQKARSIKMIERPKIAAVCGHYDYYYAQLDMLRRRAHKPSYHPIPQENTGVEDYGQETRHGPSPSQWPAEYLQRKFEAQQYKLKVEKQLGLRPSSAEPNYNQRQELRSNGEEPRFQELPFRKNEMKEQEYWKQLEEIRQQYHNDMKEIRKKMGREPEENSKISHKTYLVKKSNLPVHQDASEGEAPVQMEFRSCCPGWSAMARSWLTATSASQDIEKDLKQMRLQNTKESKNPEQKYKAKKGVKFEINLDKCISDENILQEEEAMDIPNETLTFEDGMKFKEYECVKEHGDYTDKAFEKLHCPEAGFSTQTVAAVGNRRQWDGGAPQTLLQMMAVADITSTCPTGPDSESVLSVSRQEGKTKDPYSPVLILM

In the case of `Cc1ccc(-c2cnc([C@@]3(O)CC[C@H](C(=O)O)C(C)(C)C3)s2)cc1Nc1cccc(C(F)(F)F)n1` [MRL-SYKi-NC], the IC50 [1] was > 10 µM (not active), the residual activity [2] was 100% and the residual activity [3] was 100%. The residual activity [4] was 77.6%, the residual activity [5] was 100% and the residual activity [6] was 90.7%. The residual activity [7] was 87.2%, the residual activity [8] was 100% and the residual activity [9] was 89.1%. For the same compound, the residual activity [10] was 74.6%, the residual activity [11] was 98.5% and the residual activity [12] was 92.1%. For the same compound, the residual activity [13] was 100%, the residual activity [14] was 100% and the residual activity [15] was 100%. The residual activity [16] was 75.4%, the residual activity [17] was 100% and the residual activity [18] was 43.1%. For the same compound, the residual activity [19] was 93%, the residual activity [20] was 100% and the residual activity [21] was 100%. The residual activity [22] was 100%, the residual activity [23] was 93.9% and the residual activity [24] was 90%. For the same compound, the residual activity [25] was 100%, the residual activity [26] was 100% and the residual activity [27] was 100%. For the same compound, the residual activity [28] was 100%, the residual activity [29] was 90.1% and the residual activity [30] was 81.3%. The residual activity [31] was 85.4%, the residual activity [32] was 72.5% and the residual activity [33] was 71.4%. It also gave a residual activity [34] of 100%, a residual activity [35] of 100% and a residual activity [36] of 95.5%. For the same compound, the residual activity [37] was 86.4%, the residual activity [38] was 100% and the residual activity [39] was 100%. It also gave a residual activity [40] of 100%, a residual activity [41] of 88.5% and an inhibition [42] of 11.2%. The inhibition [43] was 77.9%, the inhibition [44] was -5.83% and the inhibition [45] was 46.4%. It also gave an inhibition [46] of 71.8%.
In the case of `Cc1cc(Nc2nccc(C)n2)cc(-c2cnc([C@@]3(O)CC[C@H](C(=O)O)C(C)(C)C3)s2)c1` [MRL-SYKi], the IC50 [1] was 0.038 µM (active), the residual activity [2] was 100% and the residual activity [3] was 93.8%. For the same compound, the residual activity [4] was 100%, the residual activity [5] was 69.5% and the residual activity [6] was 100%. The residual activity [7] was 84.6%, the residual activity [8] was 85.4% and the residual activity [9] was 99.9%. It also gave a residual activity [10] of 100%, a residual activity [11] of 100% and a residual activity [12] of 100%. It also gave a residual activity [13] of 100%, a residual activity [14] of 66.6% and a residual activity [15] of 100%. The residual activity [16] was 100%, the residual activity [17] was 100% and the residual activity [18] was 100%. For the same compound, the residual activity [19] was 44.7%, the residual activity [20] was 100% and the residual activity [21] was 85.1%. The residual activity [22] was 87.2%, the residual activity [23] was 73.8% and the residual activity [24] was 29.5%. It also gave a residual activity [25] of 65.9%, a residual activity [26] of 83.5% and a residual activity [27] of 74.2%. The residual activity [28] was 100%, the residual activity [29] was 100% and the residual activity [30] was 14.7%. The residual activity [31] was 100%, the residual activity [32] was 100% and the residual activity [33] was 100%. It also gave a residual activity [34] of 77.2%, a residual activity [35] of 64.4% and a residual activity [36] of 94.5%. The residual activity [37] was 55.5%, the residual activity [38] was 100% and the residual activity [39] was 100%. It also gave a residual activity [40] of 100%, a residual activity [41] of 44.9% and an inhibition [42] of -4.23%. The inhibition [43] was 6.38%, the inhibition [44] was 30.6% and the inhibition [45] was 50.4%. It also gave an inhibition [46] of 3.63%.
